In the COVID Moonshot data (paper PMC7615835) one finds IC50 data, which are given here for 61 compounds.

“And” between values parts separate entries of the source, which are not always exact repeats. Equal entries are not always repeated. A value given as a limit tells only on which side of the number the result lay.

Usually IC50 stands for the concentration at which inhibition is half-maximal. A high value points to weaker potency in that assay.

This experiment deals with SARS-CoV-2 Main Protease (SARS-CoV-2) (UniProt P0DTD1).
On to `Cc1ccc(N(Cc2cscn2)C(=O)Cc2cncc3ccccc23)nc1`, for which the concentration for half-maximal inhibition (IC50) was > 99500 nM. With `Cc1ccncc1NC(=O)CN1CCC(C)CC1`, the IC50 was determined as 49200 nM. Regarding `O=C(O)CC1(C(=O)Nc2cncc3ccccc23)CCOc2ccc(Cl)cc21` (stereo unspecified), the IC50 is 31400 nM and > 9950 nM. In the case of `O=C(Cc1cc(Cl)cc(NCc2ccc(-c3ccccc3)cc2)c1)Nc1cncc2ccccc12`, the IC50 came out at 1530 nM. As for `COC(=O)[C@@H]1CC[C@H](NC(=O)C(c2cccnc2)N(C(=O)c2cocn2)c2ccc(C(C)(C)C)cc2)C1` (stereo in doubt), the IC50 is 2380 nM.

In the case of `COc1cccc(C2=N/C(=C/c3sccc3C)C(=O)O2)c1`, the IC50 worked out at 1170 nM. The value for `CC(C)(C)OC(=O)N(c1cc(Cl)cc(CC(=O)Nc2cncc3ccccc23)c1)C1CNC1` was 2030 nM.

For `CC(C)(C)c1ccc(N(C(=O)c2c[nH]nn2)C(C(=O)NCCc2cccc(F)c2)c2cccnc2)cc1` (stereo unspecified), the IC50 worked out at 1170 nM. In the case of `Cc1ccncc1NC(=O)Cc1cc(Cl)cc(-c2ccc(C3(C)CCO3)cc2)c1` (stereo unspecified), the IC50 is 8950 nM. On to `Cc1cc(C(=O)N2Cc3ccc(Cl)cc3C3(CCN(c4cncc5ccccc45)C3=O)C2)n(C)n1` (stereo unspecified), for which the half-inhibitory concentration (IC50) worked out at 464 nM. With `O=C1CC(Oc2cc(Cl)cc(CC(=O)Nn3cnc4ccccc43)c2)N1` (stereo unspecified) the figure was 82100 nM; with `O=C(Nc1cccnc1)N1CCC(CN2CCc3ccccc32)CC1`, > 99500 nM; with `COc1c(Cl)cccc1OCCNC(=O)c1cc(=O)[nH]c2ccccc12`, 6390 nM. As for `Cc1ccnc(NC(=O)C2CCOc3ccc(Cl)cc32)c1N` (stereo unspecified), the IC50 stood at 71600 nM. The value for `CC(NC(=O)C1CCC(=O)NC1)(C(=O)Nc1cncc2ccccc12)c1ccc(Cl)c(Cl)c1` (stereo unspecified) was 4100 nM; that for `C=CC(=O)N(Cc1ccccc1Cl)C(C(=O)NC)c1cccnc1` (stereo unspecified) was > 99500 nM. Regarding `O=c1c2ccccc2c(-c2ccc(Br)cc2)nn1CC(O)CN1CCOCC1` (stereo unspecified), the IC50 was > 99500 nM. As to `N#CC1CN(S(=O)(=O)NCc2ccc(Cl)cc2CC(=O)Nc2cncc3ccccc23)C1`, the IC50 was 231 nM.

For `O=C(CCc1nc2ccccc2[nH]1)N1CCC(CCc2ccccc2)CC1`, the IC50 was > 99500 nM. `COc1cc(Cl)nc(Nc2cc(Cl)cc(CC(=O)Nc3cncc4ccccc34)c2)n1` showed a half-inhibitory concentration (IC50) of 504 nM. Regarding `O=C(Nc1cccnc1)[C@@H](c1ccccc1)N1Cc2ccccc2C1=O` (stereo in doubt), the IC50 was > 99500 nM. In the case of `COC(C)(C)CS(=O)(=O)N1Cc2ccc(Cl)cc2C(C(=O)Nc2cncc3ccccc23)C1` (stereo unspecified), the IC50 came out at 200 nM.

As for `CC(C)(C)OC(=O)NCCCNC(=O)C(c1cccnc1)N(C(=O)c1cocn1)c1ccc(C(C)(C)C)cc1` (stereo unspecified), the IC50 came out at 3390 nM.

With `CC(C)(C)c1ccc(N(C(=O)c2cocn2)C(C(=O)NCC(=O)OCc2ccccc2)c2cccnc2)cc1` (stereo unspecified), the IC50 came out at 9920 nM. The value for `O=C(COC(=O)C1(c2ccccc2)CCC1)c1c[nH]c2ccccc12` was > 99500 nM; that for `O=C(CN1CC(C(=O)Nc2cncc3ccccc23)c2cc(Cl)ccc2C1=O)NCC(F)(F)F` (stereo unspecified) was 340 nM; that for `Cn1nc(C(=O)NC(C)(C(=O)Nc2cncc3ccccc23)c2ccc(Cl)c(Cl)c2)cc1C#N` (stereo unspecified) was 7580 nM and 14100 nM. `O=C(Cc1cc(Cl)cc(NCc2ccc(Cl)c(C(F)(F)F)c2)c1)Nc1cncc2ccccc12`: the IC50 was determined as 2980 nM. In the case of `N#Cc1c(Cl)cccc1Nc1cc(Cl)cc(CC(=O)Nc2cncc3ccccc23)c1`, the half-maximal inhibitory concentration (IC50) amounted to 1930 nM. In the case of `CCNC(=O)CN1CC(C(=O)Nc2cncc3cc(S(C)(=O)=O)ccc23)c2cc(Cl)ccc2C1=O` (stereo unspecified), the IC50 was 67.5 nM and 134 nM. With `O=C(Cc1cc(Cl)cc(Nc2ccc(Oc3ccccc3Cl)cc2)c1)Nc1cncc2ccccc12`, the IC50 amounted to 2490 nM.

Regarding `O=C(Cc1cc(Cl)cc(Nc2ncnc3c2ncn3CCO)c1)Nc1cncc2ccccc12`, the IC50 turned out to be 1820 nM. For `N#Cc1ncn(CC(=O)Nc2ccc(Br)cc2Cl)n1`, the IC50 is 15700 nM. In turn, `O=C(Nc1cncc2ccccc12)C1CN(S(=O)(=O)C2CCOC2)Cc2ccc(Cl)cc21` (stereo unspecified) gave an IC50 of 152 nM. The value for `CNCC1CCCN(C(=O)[C@@H](c2ccccc2)N2Cc3ccccc3C2=O)C1` (stereo in doubt) was > 99500 nM; that for `CC(C)(C)c1ccc(N(C(=O)c2cocn2)C(C(=O)NCCc2cccc(F)c2)c2cnc(N3CCOCC3)nc2)cc1` (stereo unspecified) was > 99500 nM; that for `O=C(O)CN1C(=O)C(=O)c2cc([N+](=O)[O-])ccc21` was > 99500 nM. The value for `Cc1ccncc1NC(=O)CN1C(=O)COc2ccc(Cl)cc21` was 59900 nM; that for `CC(C)(C)c1ccc(N(C(=O)c2cocn2)C(C(=O)NCCc2cccc(F)c2)c2ccc[nH]c2=O)cc1` (stereo unspecified) was > 99500 nM; that for `O=C(Nc1cncc2ccccc12)C1CN(S(=O)(=O)N2CCCC2CO)Cc2ccc(Cl)cc21` (stereo unspecified) was 1140 nM. The value for `COc1ccc2ncc(NC(=O)Cc3cccc(Cl)c3)n2c1` was 15900 nM; that for `COc1c(C(=O)N(c2ccc(C(C)(C)C)cc2)C(C(=O)NCCc2cccc(F)c2)c2cccnc2)[nH]c(=O)[nH]c1=O` (stereo unspecified) was > 99500 nM. With `Cc1cc(C(F)(F)F)nc2c1c(N)nn2C(=O)C1CCOc2ccc(Cl)cc21` (stereo unspecified), the IC50 is > 99500 nM. In turn, `COCCc1ccc(Cl)cc1CN1CCN(C(=O)CCl)CC1` came in with an IC50 of 2200 nM. As for `C[C@H](C(=O)O)C(=O)SCCNC(=O)CCNC(=O)[C@H](O)C(C)(C)COP(=O)(O)OP(=O)(O)OC[C@H]1O[C@@H](n2cnc3c(N)ncnc32)[C@H](O)[C@@H]1OP(=O)(O)O` (stereo in doubt), the IC50 was > 99000 nM. For the compound `CC(Cc1nc2ccccc2s1)Nc1ccc2nnnn2n1` (stereo unspecified), the IC50 was > 99500 nM. The compound `CNC(=O)c1ccc2cncc(NC(=O)C3CN(S(=O)(=O)CC4(C#N)CC4)Cc4ccc(Cl)cc43)c2c1` (stereo unspecified) yielded a 50% inhibitory concentration (IC50) of 116 nM. Regarding `O=C(CC1(C(=O)Nc2cncc3ccccc23)CCOc2ccc(Cl)cc21)N1CCCC1c1nn[nH]n1` (stereo unspecified), the IC50 is 7980 nM.

Compound `Cc1ccc(Nc2cc(Cl)cc(CC(=O)Nc3cncc4ccccc34)c2)cc1I` yielded an IC50 of 2070 nM.

In the case of `O=C(Cc1cc(Cl)cc(Nc2cc(Cl)cc([N+](=O)[O-])c2O)c1)Nc1cncc2ccccc12`, the IC50 is 4690 nM. With `O=C(Cc1cc(Cl)cc(Nc2cccc(C(F)(F)F)n2)c1)Nc1cncc2ccccc12` the figure was 2130 nM. With `O=C(Cc1cc(Cl)cc(Nc2cc(Cl)c(F)c(Cl)c2)c1)Nc1cncc2ccccc12` the figure was 1850 nM; with `O=C(Cc1cc(Cl)cc(Nc2ccc(F)cc2C(F)(F)F)c1)Nc1cncc2ccccc12`, 1560 nM; with `CS(=O)(=O)c1ccc2c(NC(=O)C34CC(C3)Oc3ccc(Cl)cc34)cncc2c1`, 22900 nM. With `COc1ccccc1OCCNC(=O)C1CC(=O)Nc2ccccc21` (stereo unspecified), the concentration for half-maximal inhibition (IC50) is > 99500 nM. With `O=C(Nc1cncc2cccc(Cl)c12)C12CC(C1)Oc1ccc(Cl)cc12` the figure was 75100 nM. For `O=C(Cc1cc(Cl)cc(Nc2cc(F)c(F)cc2Br)c1)Nc1cncc2ccccc12`, the IC50 worked out at 2160 nM. For `CNC(=O)CN1C[C@H](C(=O)Nc2cncc3cccc(Cl)c23)c2cc(Cl)ccc2C1=O` (stereo in doubt), the IC50 is 96.4 nM.

Take `CC(C)(C)c1ccc(N(C(=O)c2ccco2)C(C(=O)NCCN2CCOCC2)c2cccnc2)cc1` (stereo unspecified): the IC50 amounted to 2190 nM. `O=C1N(c2cncc3ccccc23)CCC12CN(S(=O)(=O)CC1(C(F)F)CC1)Cc1ccc(Cl)cc12` (stereo unspecified): the IC50 was 155 nM. With `CNC(=O)Nc1ccc(N(C(=O)c2cocn2)C(C(=O)NCCc2cccc(F)c2)c2cccnc2)cc1` (stereo unspecified) the figure was > 99500 nM.
